The values that follow come from patent publication US20180303777A1, “Hyaluronate Compositions” (Cypress Pharmaceuticals, Inc., priority 2007, published 2018).

The assay relates to eczema. As to the kind of experiment: Treatment of eczema in a patient. The format is in vivo, human. The note with it: topical to the most gravely affected areas, before the composition. From the text: A patient with eczema visited a pediatrician. […] The patient was prescribed desoximatasone for topical administration to the most gravely affected areas. […] Subsequently, the pediatrician provided the patient's parent with an amount of the exemplary composition as described in Example 3 in a suitable container-closure system, for daily administration to the patient.

Take `C[C@@H]1C[C@H]2[C@@H]3CCC4=CC(=O)C=C[C@]4(C)[C@@]3(F)[C@@H](O)C[C@]2(C)[C@H]1C(=O)CO` [desoximatasone]: the “results of topical treatment of eczema” value is given as “not satisfactory”.
